{"source": "patent US12398131B2", "about": "“Thiadiazolyl derivatives as DNA polymerase theta inhibitors and uses thereof” (GlaxoSmithKline Intellectual Property (No.4) Limited, priority 2022, dated 2025)", "key": {"Polθ [1]": {"target": "Polθ (Rattus norvegicus, UniProt D4A628)", "experiment": "Polθ ATPase biochemical assay, rat", "conditions": "read-out: pIC50, inhibition of Polθ (converted)", "experimental": "(§1) The ATPase activity of Polθ recombinant helicase domain was measured in an enzymatic activity assay. The production of ADP from ATP substrate was determined in a coupled enzyme assay linked to NAD+ production. The NAD+ production was measured by monitoring absorbance changes at 340 nm in a kinetic manner. Gradients of the rate plots were determined for each concentration of Compound A and expressed as % inhibition of enzyme activity."}, "Polθ [2]": {"target": "T1, Polθ (Mus musculus, UniProt Q8CGS6)", "T1 construct": "The ATPase activity of Polθ recombinant helicase domain was measured in an enzymatic activity assay", "T1 sequence (Q8CGS6 101-551 limits assumed)": "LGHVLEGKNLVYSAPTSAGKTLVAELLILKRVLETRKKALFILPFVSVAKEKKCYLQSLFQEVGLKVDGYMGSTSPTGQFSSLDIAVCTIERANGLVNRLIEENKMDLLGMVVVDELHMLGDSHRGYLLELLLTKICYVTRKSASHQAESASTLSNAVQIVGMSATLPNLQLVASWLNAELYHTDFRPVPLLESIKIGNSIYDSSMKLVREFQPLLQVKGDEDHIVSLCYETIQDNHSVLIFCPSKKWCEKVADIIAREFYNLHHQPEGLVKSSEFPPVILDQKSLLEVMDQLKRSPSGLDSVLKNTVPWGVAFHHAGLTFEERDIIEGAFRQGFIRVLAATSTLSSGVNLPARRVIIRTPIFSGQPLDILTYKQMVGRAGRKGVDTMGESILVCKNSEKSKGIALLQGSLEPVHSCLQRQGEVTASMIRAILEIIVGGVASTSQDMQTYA", "experiment": "Polθ ATPase biochemical assay, mouse", "conditions": "read-out: pIC50, inhibition of Polθ (converted)", "experimental": "as §1"}, "[3]": {"target": "T2, Polθ recombinant helicase domain (ATPase activity) (Homo sapiens, UniProt O75417)", "T2 construct": "The ATPase activity of Polθ recombinant helicase domain was measured in an enzymatic activity assay", "T2 sequence (O75417 102-554 limits assumed)": "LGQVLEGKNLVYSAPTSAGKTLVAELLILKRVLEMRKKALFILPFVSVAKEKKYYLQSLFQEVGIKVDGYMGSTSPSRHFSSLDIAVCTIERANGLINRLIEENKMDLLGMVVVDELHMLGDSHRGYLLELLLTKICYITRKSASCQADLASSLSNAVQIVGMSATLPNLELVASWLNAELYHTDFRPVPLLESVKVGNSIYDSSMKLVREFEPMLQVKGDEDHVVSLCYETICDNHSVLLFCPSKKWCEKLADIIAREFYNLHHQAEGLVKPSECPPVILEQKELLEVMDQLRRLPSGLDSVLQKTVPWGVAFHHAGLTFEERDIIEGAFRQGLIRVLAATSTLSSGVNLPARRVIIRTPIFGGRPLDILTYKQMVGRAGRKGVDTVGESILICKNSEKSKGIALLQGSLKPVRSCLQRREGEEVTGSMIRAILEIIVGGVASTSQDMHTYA", "experiment": "Polθ ATPase biochemical assay", "conditions": "read-out: pIC50, inhibition of ATPase activity in the helicase domain of Polθ (converted)", "experimental": "as §1"}, "[4]": {"tested_on": "BRCA1 mutant breast cancer line MDA-MB-436", "experiment": "7-day CellTiter-Glo (CTG) cell viability and synergy assay", "assay_type": "cell-based", "conditions": "for EC50: Homo sapiens; for Synergy score (ComBenefit) Bliss / Synergy score (ComBenefit) HAS / Synergy score (ComBenefit) Loewe: MDA-MB-436", "experimental": "Single agent EC50 values for Compound A were above 30 μM in both cell lines. […] After 7 days, cell viability was assessed with the CTG assay. Dose response curves were interpolated using GraphPad Prism 9ART, and the synergy of drug combinations using data from the cell viability assays was analyzed with ComBenefit 2.02 (Table 4). Synergy scores of Compound A and Niraparib co-treatment were calculated using Combenefit. Synergy scores for combination matrices calculated with the Bliss, […] (least stringent) and Loewe (most stringent) models are shown. […] Synergistic effects of Compound A and ART558 were confirmed with talazoparib."}, "Polθ [5]": {"target": "Polθ (Canis lupus familiaris, UniProt A0A8I3S1N1)", "sequence (A0A8I3S1N1 1-2595)": "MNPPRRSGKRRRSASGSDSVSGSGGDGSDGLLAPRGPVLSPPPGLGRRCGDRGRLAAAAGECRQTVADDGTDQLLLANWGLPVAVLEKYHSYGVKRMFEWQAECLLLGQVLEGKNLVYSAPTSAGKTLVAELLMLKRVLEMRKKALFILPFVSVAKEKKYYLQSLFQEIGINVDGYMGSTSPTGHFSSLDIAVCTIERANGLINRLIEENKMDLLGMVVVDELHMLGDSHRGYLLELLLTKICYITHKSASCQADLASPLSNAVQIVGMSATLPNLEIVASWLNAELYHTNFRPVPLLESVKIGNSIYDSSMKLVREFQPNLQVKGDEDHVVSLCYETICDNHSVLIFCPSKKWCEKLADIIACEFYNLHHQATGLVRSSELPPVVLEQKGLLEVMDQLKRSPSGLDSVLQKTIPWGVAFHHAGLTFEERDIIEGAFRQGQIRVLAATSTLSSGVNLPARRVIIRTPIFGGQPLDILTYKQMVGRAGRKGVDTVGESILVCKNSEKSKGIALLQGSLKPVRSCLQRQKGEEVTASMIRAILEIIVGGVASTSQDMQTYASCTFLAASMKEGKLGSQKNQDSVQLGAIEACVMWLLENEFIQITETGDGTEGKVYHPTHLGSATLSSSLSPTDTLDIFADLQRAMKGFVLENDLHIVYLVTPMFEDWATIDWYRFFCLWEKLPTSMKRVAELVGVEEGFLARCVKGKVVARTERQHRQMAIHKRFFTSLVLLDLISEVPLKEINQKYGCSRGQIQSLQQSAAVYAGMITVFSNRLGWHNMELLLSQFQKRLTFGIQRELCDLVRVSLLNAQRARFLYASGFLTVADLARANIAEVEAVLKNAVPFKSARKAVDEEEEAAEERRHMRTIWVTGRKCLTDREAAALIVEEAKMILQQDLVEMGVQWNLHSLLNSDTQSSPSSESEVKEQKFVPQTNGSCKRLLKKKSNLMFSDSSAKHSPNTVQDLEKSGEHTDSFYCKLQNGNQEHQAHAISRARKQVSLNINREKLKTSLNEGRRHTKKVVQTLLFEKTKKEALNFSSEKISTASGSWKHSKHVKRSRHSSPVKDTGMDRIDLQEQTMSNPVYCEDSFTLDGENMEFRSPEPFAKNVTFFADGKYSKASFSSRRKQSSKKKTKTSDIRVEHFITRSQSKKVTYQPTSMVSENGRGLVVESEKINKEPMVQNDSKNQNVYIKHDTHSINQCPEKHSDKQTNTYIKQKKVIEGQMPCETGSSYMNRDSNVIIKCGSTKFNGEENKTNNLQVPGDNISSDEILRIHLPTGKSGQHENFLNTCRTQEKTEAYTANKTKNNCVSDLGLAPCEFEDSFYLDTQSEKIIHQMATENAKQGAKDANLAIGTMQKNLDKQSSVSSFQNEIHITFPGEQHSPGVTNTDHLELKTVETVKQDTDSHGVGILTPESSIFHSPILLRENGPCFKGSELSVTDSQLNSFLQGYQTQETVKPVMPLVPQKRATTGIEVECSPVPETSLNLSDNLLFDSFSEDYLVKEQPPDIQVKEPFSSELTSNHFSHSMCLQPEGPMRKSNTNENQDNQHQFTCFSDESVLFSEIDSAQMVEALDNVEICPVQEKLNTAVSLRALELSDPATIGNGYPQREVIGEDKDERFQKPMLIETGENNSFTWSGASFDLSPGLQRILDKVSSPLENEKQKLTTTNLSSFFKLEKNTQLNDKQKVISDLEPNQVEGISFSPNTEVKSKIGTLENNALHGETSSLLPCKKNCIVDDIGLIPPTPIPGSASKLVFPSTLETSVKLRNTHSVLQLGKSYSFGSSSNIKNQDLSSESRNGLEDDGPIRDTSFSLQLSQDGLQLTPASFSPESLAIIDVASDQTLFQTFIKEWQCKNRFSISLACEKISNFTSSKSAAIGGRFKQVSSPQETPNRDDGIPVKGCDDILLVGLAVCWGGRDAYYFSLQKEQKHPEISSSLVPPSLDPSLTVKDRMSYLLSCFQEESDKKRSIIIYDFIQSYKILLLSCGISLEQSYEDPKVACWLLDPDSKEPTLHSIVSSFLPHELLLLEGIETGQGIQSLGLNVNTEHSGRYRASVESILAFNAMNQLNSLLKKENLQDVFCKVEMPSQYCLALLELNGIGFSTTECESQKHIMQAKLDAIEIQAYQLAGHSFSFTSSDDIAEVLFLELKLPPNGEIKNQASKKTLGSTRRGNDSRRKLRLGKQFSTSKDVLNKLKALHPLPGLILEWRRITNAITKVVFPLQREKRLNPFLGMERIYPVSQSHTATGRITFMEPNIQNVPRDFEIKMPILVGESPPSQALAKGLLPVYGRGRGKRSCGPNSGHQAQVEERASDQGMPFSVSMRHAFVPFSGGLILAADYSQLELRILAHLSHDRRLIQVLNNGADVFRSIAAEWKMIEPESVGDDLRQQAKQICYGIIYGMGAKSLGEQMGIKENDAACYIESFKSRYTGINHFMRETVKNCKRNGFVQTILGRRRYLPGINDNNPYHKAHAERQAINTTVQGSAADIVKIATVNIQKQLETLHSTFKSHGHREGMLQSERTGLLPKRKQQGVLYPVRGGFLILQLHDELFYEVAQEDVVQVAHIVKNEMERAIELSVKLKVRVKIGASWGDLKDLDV", "experiment": "Polθ ATPase biochemical assay, dog", "conditions": "read-out: pIC50, inhibition of Polθ (converted)", "experimental": "as §1"}, "[6]": {"conditions": "Compound A and Niraparib co-treatment"}}, "note": "Like-named read-outs stand apart in the source and are kept apart here.", "data": [{"smiles": "COc1nnc(NC(=O)c2cnc(C)cc2-c2cc(Cl)ncc2OC)s1", "note": "[Compound A, 2′-chloro-5′-methoxy-N-(5-methoxy-1,3,4-thiadiazol-2-yl)-6-methyl-(4,4′-bipyridine)-3-carboxamide]", "values": [{"measurement": "IC50", "setting": "Polθ [1]", "value": 10, "unit": "nM"}, {"measurement": "IC50", "setting": "Polθ [2]", "value": 15.8, "unit": "nM"}, {"measurement": "IC50", "setting": "[3]", "value": 15.8, "unit": "nM"}, {"measurement": "EC50", "setting": "[4]; MDA-MB-436, 168 h, MDA-MB-436, 7-day CTG, single agent, read-out: Single agent EC50", "value": "> 30000", "unit": "nM"}, {"measurement": "EC50", "setting": "[4]; MDA-MB-436, MDA-MB-436, Niraparib 0 nM, read-out: Compound A EC50", "value": "> 30000", "unit": "nM"}, {"measurement": "EC50", "setting": "[4]; MDA-MB-436, MDA-MB-436, Talazoparib 0 nM, read-out: EC50", "value": "> 30000", "unit": "nM"}, {"measurement": "EC50", "setting": "[4]; MDA-MB-436, MDA-MB-436, in combination with Niraparib 10 nM, read-out: Compound A EC50", "value": 596, "unit": "nM"}, {"measurement": "EC50", "setting": "[4]; MDA-MB-436, MDA-MB-436, in combination with Niraparib 30 nM, read-out: Compound A EC50", "value": 189, "unit": "nM"}, {"measurement": "EC50", "setting": "[4]; MDA-MB-436, MDA-MB-436, in combination with Niraparib 100 nM, read-out: Compound A EC50", "value": 162, "unit": "nM"}, {"measurement": "EC50", "setting": "[4]; MDA-MB-436, MDA-MB-436, in combination with Talazoparib 1.2 nM, read-out: EC50", "value": 95, "unit": "nM"}, {"measurement": "EC50", "setting": "[4]; MDA-MB-436, MDA-MB-436, in combination with Talazoparib 3.7 nM, read-out: EC50", "value": 319, "unit": "nM"}, {"measurement": "EC50", "setting": "[4]; MDA-MB-436, MDA-MB-436, in combination with Talazoparib 10 nM, read-out: EC50", "value": 803, "unit": "nM"}, {"measurement": "Comb Benefit", "setting": "[4]; MDA-MB-436, 7 days CTG, Compound A and Niraparib combination", "value": "Yes"}, {"measurement": "Synergy score (ComBenefit) Bliss", "setting": "[4]; [6]", "value": 8}, {"measurement": "Synergy score (ComBenefit) HAS", "setting": "[4]; [6]", "value": 19}, {"measurement": "Synergy score (ComBenefit) Loewe", "setting": "[4]; [6]", "value": 19}, {"measurement": "Synergy score (ComBenefit) Bliss", "setting": "[4]; combination with Talazoparib", "value": 19}, {"measurement": "Synergy score (ComBenefit) HAS", "setting": "[4]; combination with Talazoparib", "value": 14}, {"measurement": "Synergy score (ComBenefit) Loewe", "setting": "[4]; combination with Talazoparib", "value": 14}, {"measurement": "IC50", "setting": "Polθ [5]", "value": 15.8, "unit": "nM"}]}]}
